{"source": "patent US9926324B2", "about": "“Heteroaromatic compounds as PI3 kinase modulators and methods of use” (Calitor Sciences, LLC, priority 2012, dated 2018)", "key": {"[1]": {"assay": "Compound stability in human liver microsomes", "assay_type": "in vitro ADME", "conditions": "for Human T1/2 / half-life at 5 μM: human liver microsomes 0.5 mg protein/mL, compound 5 μM, NADPH 1.0 mM, 37° C.; for half-life at 5 μM / CLint scaled at 5 μM: pH 7.4; for half-life at 5 μM: read-out: Human T1/2; for CLint scaled at 5 μM: human liver microsomes, in vivo CLint extrapolated", "procedure": "(§1) Human or rat liver microsomes incubations were conducted in duplicate in polypropylene tubes. The typical incubation mixtures consisted of human or rat liver microsomes (0.5 mg protein/mL), compounds of interest (5 μM) and NADPH (1.0 mM) in a total volume of 200 μL potassium phosphate buffer (PBS, 100 mM, pH=7.4). Compounds were dissolved in DMSO and diluted with PBS such that the final concentration of DMSO was 0.05%. The enzymatic reactions were commenced with the addition of […] after a 3-min preincubation and incubated in a water bath open to the air at 37° C. Reactions were terminated at various time points (0, 5, 10, 15, 30, 60 min) by adding equal volume of ice-cold acetonitrile. The samples were stored at −80° C. until LC/MS/MS assays.\n(§2) The concentrations of compounds in the incubation mixtures of human or rat liver microsomes were determined by a LC/MS/MS method. The ranges of the linearity in the concentration range were determined for each tested compounds.\n(§3) A parallel incubation was performed using denatured microsomes as the negative control, and reactions were terminated at various time points (0, 15, 60 min) after incubation at 37° C.\n(§4) Dextromethorphan (70 μM) was selected as the positive control, and reactions were terminated at various time points (0, 5, 10, 15, 30, 60 min) after incubation at 37° C. Both positive and negative control samples were included in each assay to ensure the integrity of the microsomal incubation system.\n(§5) The concentrations of compounds in human or rat liver microsome incubations were plotted as a percentage of the relevant zero time point control for each reaction. The in vivo CLint were extrapolated (ref: Naritomi Y, Terashita S, Kimura S, Suzuki A, Kagayama A, Sugiyama Y. Prediction of human hepatic clearance from in vivo animal experiments and in vitro metabolic studies with liver microsomes from animals and humans. Drug Metabolism and Disposition 2001, 29: 1316-1324)."}, "[2]": {"assay": "Compound stability in rat liver microsomes", "assay_type": "in vitro ADME", "conditions": "for Rat T1/2 / half-life at 5 μM: rat liver microsomes 0.5 mg protein/mL, compound 5 μM, NADPH 1.0 mM, 37° C.; for half-life at 5 μM / CLint scaled at 5 μM: pH 7.4; for half-life at 5 μM: read-out: Rat T1/2; for CLint scaled at 5 μM: rat liver microsomes, in vivo CLint extrapolated", "procedure": "as §1, §2, §3, §4, §5"}, "[3]": {"assay": "Pharmacokinetic profiles in rats after intravenous and oral administration", "assay_type": "in vivo", "conditions": "for F: oral dose generally 5 or 10 mg/kg; for AUC(0-t) / half-life / Vd: rat, plasma; for Vd: read-out: Vss", "procedure": "(§6) The compounds disclosed herein are assessed in pharmacokinetic studies in mice, rats, dogs or monkeys. The compounds are administered as a water solution, 2% HPMC+1% TWEEN® 80 in water solution, 5% DMSO+5% solutol in saline, 4% MC suspension or capsule. For the intravenous administration, the animals are generally given at 1 or 2 mg/kg dose. For the oral (p.o.) dosing, mice and rats are generally given 5 or 10 mg/kg dose, and dogs and monkeys are generally given 10 mg/kg dose. The blood samples (0.3 mL) are drawn at 0.25, 0.5, 1.0, 2.0, 3.0, 4.0, 6.0, 8.0, 12 and 24 h time points or 0.083, 0.25, 0.5, 1.0, 2.0, 4.0, 6.0, 8.0 and 24 h time points and centrifuged at 3,000 or 4000 rpm for 2 to 10 min. The plasma solutions are collected, stored at −20° C. or −70° C. until analyzed by LC/MS/MS as described above."}, "[4]": {"assay": "Pharmacokinetic profiles in monkeys after intravenous and oral administration", "assay_type": "in vivo", "conditions": "Monkey; for F: iv dose 1 mg/kg, oral dose generally 10 mg/kg; for Cl/F / AUC(0-t) / half-life / Vd: iv dosing 1 mg/kg; for AUC(0-t) / half-life / Vd: plasma; for Vd: read-out: Vss", "procedure": "as §6"}, "[5]": {"target": "T1, PI3K p110β/p85α (h) (Homo sapiens, UniProt P42338)", "T1 construct": "purchased Millipore UK Ltd (assay service)", "T1 sequence (P42338 whole entry)": "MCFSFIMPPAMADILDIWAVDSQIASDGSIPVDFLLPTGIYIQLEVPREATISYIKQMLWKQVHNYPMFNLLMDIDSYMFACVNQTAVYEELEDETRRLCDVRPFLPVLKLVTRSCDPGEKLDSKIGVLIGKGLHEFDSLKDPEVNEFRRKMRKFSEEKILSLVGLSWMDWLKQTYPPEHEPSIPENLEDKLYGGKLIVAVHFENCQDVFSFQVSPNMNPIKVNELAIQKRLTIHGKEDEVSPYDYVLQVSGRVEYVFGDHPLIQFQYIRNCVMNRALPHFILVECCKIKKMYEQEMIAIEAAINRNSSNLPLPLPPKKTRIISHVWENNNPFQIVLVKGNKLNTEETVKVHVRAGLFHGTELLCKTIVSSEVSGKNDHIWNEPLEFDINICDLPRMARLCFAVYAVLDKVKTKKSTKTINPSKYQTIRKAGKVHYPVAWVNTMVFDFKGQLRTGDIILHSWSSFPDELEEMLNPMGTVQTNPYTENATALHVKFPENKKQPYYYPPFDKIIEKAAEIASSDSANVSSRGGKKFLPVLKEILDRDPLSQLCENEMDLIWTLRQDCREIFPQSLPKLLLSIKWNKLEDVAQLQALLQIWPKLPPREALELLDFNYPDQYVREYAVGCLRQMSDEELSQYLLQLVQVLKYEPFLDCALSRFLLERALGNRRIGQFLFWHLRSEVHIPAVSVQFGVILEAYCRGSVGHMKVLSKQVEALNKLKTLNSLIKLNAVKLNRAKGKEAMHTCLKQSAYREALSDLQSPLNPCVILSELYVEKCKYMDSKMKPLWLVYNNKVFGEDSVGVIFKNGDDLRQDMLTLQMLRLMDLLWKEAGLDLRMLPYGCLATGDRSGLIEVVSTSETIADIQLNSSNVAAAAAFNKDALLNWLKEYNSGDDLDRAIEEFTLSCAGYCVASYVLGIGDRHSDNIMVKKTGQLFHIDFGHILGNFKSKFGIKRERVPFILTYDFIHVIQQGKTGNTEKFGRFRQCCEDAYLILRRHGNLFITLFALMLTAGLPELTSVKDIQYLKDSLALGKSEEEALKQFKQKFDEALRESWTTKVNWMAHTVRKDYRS", "T1 sequence (P27986 whole entry partner)": "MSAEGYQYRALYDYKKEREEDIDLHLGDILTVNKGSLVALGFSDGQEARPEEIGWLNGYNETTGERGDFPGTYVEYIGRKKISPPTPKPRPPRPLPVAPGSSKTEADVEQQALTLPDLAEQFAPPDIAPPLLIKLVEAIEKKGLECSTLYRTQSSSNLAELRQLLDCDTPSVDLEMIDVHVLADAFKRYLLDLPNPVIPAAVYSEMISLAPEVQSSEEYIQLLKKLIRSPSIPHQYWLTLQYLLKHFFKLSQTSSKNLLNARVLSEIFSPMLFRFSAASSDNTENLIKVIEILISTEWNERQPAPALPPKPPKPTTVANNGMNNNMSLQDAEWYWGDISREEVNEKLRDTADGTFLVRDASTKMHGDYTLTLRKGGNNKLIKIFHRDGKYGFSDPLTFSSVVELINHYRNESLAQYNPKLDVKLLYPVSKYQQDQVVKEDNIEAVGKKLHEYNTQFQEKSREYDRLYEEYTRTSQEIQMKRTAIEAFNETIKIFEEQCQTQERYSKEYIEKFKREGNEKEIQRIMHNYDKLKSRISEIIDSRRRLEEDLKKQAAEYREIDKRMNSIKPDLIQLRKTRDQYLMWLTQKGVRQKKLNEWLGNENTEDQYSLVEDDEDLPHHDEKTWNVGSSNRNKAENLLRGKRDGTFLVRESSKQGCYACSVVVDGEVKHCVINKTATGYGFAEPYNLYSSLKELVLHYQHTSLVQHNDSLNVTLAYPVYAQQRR", "assay": "PI3K p110β/p85α (h) non-radioactive HTRF assay", "assay_type": "biochemical", "procedure": "(§7) PI3K (p110β/p85α) (h) is incubated in assay buffer containing 10 μM phosphatidylinositol-4,5-bisphosphate and MgATP (concentration as required). The reaction is initiated by the addition of the MgATP mix. After incubation for 30 minutes at room temperature, the reaction is stopped by the addition of stop solution containing EDTA and biotinylated phosphatidylinositol-3,4,5-trisphosphate. Finally, detection buffer is added, which contains europium-labelled anti-GST monoclonal antibody, GST-tagged GRP1 PH domain and streptavidin-allophycocyanin. The plate is then read in timeresolved fluorescence mode and the homogenous time-resolved fluorescence (HTRF) signal is determined according to the formula HTRF=10000×(Em665 nm/Em620 nm).\n(§8) The kinase assays described herein were performed at Millipore UK Ltd, Dundee Technology Park, Dundee DD2 1SW, UK."}, "[6]": {"target": "T2, PI3K (p110δ/p85α) (h) (Homo sapiens, UniProt O00329)", "T2 construct": "purchased Millipore UK Ltd (assay service)", "T2 sequence (O00329 whole entry)": "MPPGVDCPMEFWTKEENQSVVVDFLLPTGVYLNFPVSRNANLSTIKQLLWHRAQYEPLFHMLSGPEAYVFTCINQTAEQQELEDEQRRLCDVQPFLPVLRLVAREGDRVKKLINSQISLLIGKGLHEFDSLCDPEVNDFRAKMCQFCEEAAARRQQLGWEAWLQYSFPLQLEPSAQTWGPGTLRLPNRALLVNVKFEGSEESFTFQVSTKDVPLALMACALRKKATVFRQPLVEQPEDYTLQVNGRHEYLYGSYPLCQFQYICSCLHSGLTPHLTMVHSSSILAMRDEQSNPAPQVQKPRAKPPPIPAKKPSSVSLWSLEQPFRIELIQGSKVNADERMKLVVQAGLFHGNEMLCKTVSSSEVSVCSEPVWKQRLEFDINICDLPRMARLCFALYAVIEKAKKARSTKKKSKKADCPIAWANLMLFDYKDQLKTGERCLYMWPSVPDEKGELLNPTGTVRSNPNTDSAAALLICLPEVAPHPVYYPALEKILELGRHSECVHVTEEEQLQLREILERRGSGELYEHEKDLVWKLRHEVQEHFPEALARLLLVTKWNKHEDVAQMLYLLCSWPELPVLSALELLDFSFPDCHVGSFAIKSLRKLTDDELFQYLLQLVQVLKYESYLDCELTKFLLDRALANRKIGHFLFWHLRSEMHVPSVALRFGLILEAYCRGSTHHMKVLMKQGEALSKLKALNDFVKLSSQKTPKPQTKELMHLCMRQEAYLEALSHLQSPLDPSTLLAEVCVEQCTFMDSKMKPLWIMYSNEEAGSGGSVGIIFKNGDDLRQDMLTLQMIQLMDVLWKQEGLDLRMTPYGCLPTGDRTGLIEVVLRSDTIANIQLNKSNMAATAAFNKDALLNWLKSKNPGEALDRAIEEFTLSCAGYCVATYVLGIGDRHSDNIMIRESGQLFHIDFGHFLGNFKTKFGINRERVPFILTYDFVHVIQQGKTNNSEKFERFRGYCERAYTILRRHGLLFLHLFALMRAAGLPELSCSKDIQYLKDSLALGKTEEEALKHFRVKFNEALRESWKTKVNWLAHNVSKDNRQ", "T2 sequence (P27986 whole entry partner)": "as the sequence (P27986 whole entry partner) above", "assay": "PI3K p110δ/p85α (h) non-radioactive HTRF assay", "assay_type": "biochemical", "procedure": "as §7, with “(p110δ/p85α)” for “(p110β/p85α)”\nas §8"}}, "data": [{"smiles": "COc1ncc(-c2ccc3ncc(C#CCO)n3n2)cc1NS(=O)(=O)c1ccc(F)cc1F", "note": "[Ex. 9, 2,4-difluoro-N-(5-(3-(3-hydroxyprop-1-yn-1-yl)imidazo[1,2-b]pyridazin-6-yl)-2-methoxypyridin-3-yl)benzenesulfonamide]", "values": [{"measurement": "Human T1/2", "setting": "[1]", "result": "∞"}, {"measurement": "Rat T1/2", "setting": "[2]", "result": "∞"}, {"measurement": "F", "setting": "[3]; iv dose 1 mg/kg", "result": 104.2, "unit": "%"}, {"measurement": "Cl/F", "setting": "[3]; iv dosing 1 mg/kg", "result": 2.33, "unit": "mL/min/kg"}, {"measurement": "AUC(0-t)", "setting": "[3]; iv dosing 1 mg/kg", "result": 7490, "unit": "ng·h/mL"}, {"measurement": "half-life", "setting": "[3]; iv dosing 1 mg/kg", "result": 4.1, "unit": "h"}, {"measurement": "Vd", "setting": "[3]; iv dosing 1 mg/kg", "result": 0.37, "unit": "L/kg"}, {"measurement": "F", "setting": "[4]", "result": 27.3, "unit": "%"}, {"measurement": "Cl/F", "setting": "[4]", "result": 7.5, "unit": "mL/min/kg"}, {"measurement": "AUC(0-t)", "setting": "[4]", "result": 2370, "unit": "ng·h/mL"}, {"measurement": "half-life", "setting": "[4]", "result": 3.59, "unit": "h"}, {"measurement": "Vd", "setting": "[4]", "result": 0.39, "unit": "L/kg"}, {"measurement": "IC50", "setting": "[5]", "result": 38, "unit": "nM"}, {"measurement": "IC50", "setting": "[6]", "result": 2, "unit": "nM"}]}, {"smiles": "COc1ncc(-c2ccc3ncc(C#CCO)n3c2)cc1NS(=O)(=O)c1ccc(F)cc1F", "note": "[Ex. 15, 2,4-difluoro-N-(5-(3-(3-hydroxyprop-1-yn-1-yl)imidazo[1,2-a]pyridin-6-yl)-2-methoxypyridin-3-yl)benzenesulfonamide]", "values": [{"measurement": "half-life at 5 μM", "setting": "[1]", "result": 8.39, "unit": "h"}, {"measurement": "CLint scaled at 5 μM", "setting": "[1]", "result": 3.45, "unit": "mL/min/kg"}, {"measurement": "half-life at 5 μM", "setting": "[2]", "result": 2.01, "unit": "h"}, {"measurement": "CLint scaled at 5 μM", "setting": "[2]", "result": 20.6, "unit": "mL/min/kg"}, {"measurement": "F", "setting": "[3]; iv dose 2 mg/kg", "result": 97.0, "unit": "%"}, {"measurement": "Cl/F", "setting": "[3]; iv dosing 2 mg/kg", "result": 1.3, "unit": "mL/min/kg"}, {"measurement": "AUC(0-t)", "setting": "[3]; iv dosing 2 mg/kg", "result": 25600, "unit": "ng·h/mL"}, {"measurement": "half-life", "setting": "[3]; iv dosing 2 mg/kg", "result": 3.14, "unit": "h"}, {"measurement": "Vd", "setting": "[3]; iv dosing 2 mg/kg", "result": 0.22, "unit": "L/kg"}, {"measurement": "F", "setting": "[4]", "result": 55.4, "unit": "%"}, {"measurement": "Cl/F", "setting": "[4]", "result": 5.33, "unit": "mL/min/kg"}, {"measurement": "AUC(0-t)", "setting": "[4]", "result": 3200, "unit": "ng·h/mL"}, {"measurement": "half-life", "setting": "[4]", "result": 5.89, "unit": "h"}, {"measurement": "Vd", "setting": "[4]", "result": 0.76, "unit": "L/kg"}, {"measurement": "IC50", "setting": "[5]", "result": 27, "unit": "nM"}, {"measurement": "IC50", "setting": "[6]", "result": 1, "unit": "nM"}]}, {"smiles": "COc1ncc(-c2ccc3ncc(C#CC(C)O)n3c2)cc1NS(=O)(=O)c1ccc(F)cc1F", "note": "(stereo not shown) [Ex. 16, 2,4-difluoro N (5 (3 (3 hydroxybut-1-yn-1-yl)imidazo[1,2-a]pyridin-6-yl)-2-methoxypyridin-3-yl)benzenesulfonamide]", "values": [{"measurement": "half-life at 5 μM", "setting": "[1]", "result": 5.22, "unit": "h"}, {"measurement": "CLint scaled at 5 μM", "setting": "[1]", "result": 5.55, "unit": "mL/min/kg"}, {"measurement": "half-life at 5 μM", "setting": "[2]", "result": 0.894, "unit": "h"}, {"measurement": "CLint scaled at 5 μM", "setting": "[2]", "result": 46.3, "unit": "mL/min/kg"}, {"measurement": "F", "setting": "[3]; iv dose 1 mg/kg", "result": 99.77, "unit": "%"}, {"measurement": "Cl/F", "setting": "[3]; iv dosing 1 mg/kg", "result": 1.67, "unit": "mL/min/kg"}, {"measurement": "AUC(0-t)", "setting": "[3]; iv dosing 1 mg/kg", "result": 19400, "unit": "ng·h/mL"}, {"measurement": "half-life", "setting": "[3]; iv dosing 1 mg/kg", "result": 2.65, "unit": "h"}, {"measurement": "Vd", "setting": "[3]; iv dosing 1 mg/kg", "result": 0.35, "unit": "L/kg"}, {"measurement": "IC50", "setting": "[5]", "result": 66, "unit": "nM"}, {"measurement": "IC50", "setting": "[6]", "result": 3, "unit": "nM"}]}, {"smiles": "COc1ncc(-c2ccc3ncc(C#N)n3n2)cc1NS(=O)(=O)c1ccc(F)cc1F", "note": "[Ex. 24, N-(5-(3-cyanoimidazo[1,2-b]pyridazin-6-yl)-2-methoxypyridin-3-yl)-2,4-difluorobenzenesulfonamide]", "values": [{"measurement": "Human T1/2", "setting": "[1]", "result": "∞"}, {"measurement": "Rat T1/2", "setting": "[2]", "result": "∞"}, {"measurement": "F", "setting": "[3]; iv dose 2 mg/kg", "result": 108, "unit": "%"}, {"measurement": "Cl/F", "setting": "[3]; iv dosing 2 mg/kg", "result": 4, "unit": "mL/min/kg"}, {"measurement": "AUC(0-t)", "setting": "[3]; iv dosing 2 mg/kg", "result": 8400, "unit": "ng·h/mL"}, {"measurement": "half-life", "setting": "[3]; iv dosing 2 mg/kg", "result": 3.06, "unit": "h"}, {"measurement": "Vd", "setting": "[3]; iv dosing 2 mg/kg", "result": 0.55, "unit": "L/kg"}, {"measurement": "F", "setting": "[4]", "result": 69.8, "unit": "%"}, {"measurement": "Cl/F", "setting": "[4]", "result": 3.67, "unit": "mL/min/kg"}, {"measurement": "AUC(0-t)", "setting": "[4]", "result": 4640, "unit": "ng·h/mL"}, {"measurement": "half-life", "setting": "[4]", "result": 6.05, "unit": "h"}, {"measurement": "Vd", "setting": "[4]", "result": 0.64, "unit": "L/kg"}, {"measurement": "IC50", "setting": "[5]", "result": 26, "unit": "nM"}, {"measurement": "IC50", "setting": "[6]", "result": 3, "unit": "nM"}]}]}
